Test results as given in patent US6949250B2, “Selective algaecides for control of cyanochloronta” (The United States of America as represented by the …, priority 2002, dated 2005).
In brackets after ≈: the same amount, converted by molar mass. Where two headings read alike, the source gives them in different places.

Columns and labels:
Oscillatoria perornata = assay: Rapid bioassay screening for selective algicides (LOEC, LCIC); type: cell-based; conditions: for MIC: read-out: LCIC (lowest-complete-inhibition concentration), Oscillatoria perornata; for minimal effective concentration: read-out: LOEC (lowest-observed-effect concentration), Oscillatoria perornata
Text: (§1) These were screened in the laboratory by the method of Schrader et al. (K. K. Schrader, M. Q. de Regt, C. S. Tucker and S. O. Duke, A rapid bioassay for selective algicides. Weed Technol. (1997), vol. 11, pp. 767-774) for algicidal activity.
(§2) The anthraquinone derivatives were screened for selective toxicity towards Oscillatoria perornata, previously isolated from a Mississippi catfish pond, using the method of Schrader et al. (1997). The green alga Selenastrum capricornutum (obtained from the United States Environmental Protection Agency, Corvallis, Oreg.) was used as the representative green algal species in the bioassay since it is a common species found in southeastern United States catfish ponds. Absorbance readings were graphed, and graphs were used to determine the LOEC (lowest-observed-effect concentration) and the LCIC (lowest-complete-inhibition concentration) for each anthraquinone analog. In addition, a 96-hour 50% inhibition concentration (IC50) was determined for DNA1-19-1 and DNA2-59-1 by using the method described by Schrader et al. (1998b). Stock solutions of DNA1-19-1 and DNA2-59-1 were prepared so that final concentrations screened for 96-hour IC50 determinations were as follows: 1) 0, 0.01, 0.033, 0.1, 0.333, 1.0, 3.3, and 10.0 μM DNA1-19-1 for both O. perornata and S. capricornutum; 2) 0, 0.003, 0.01, 0.033, 0.1, 0.333, 1.0, and 3.333 μM DNA2-59-1 for O. perornata; and 3) 0, 0.1, 0.333, 1.0, 3.333, 10.0, 33.333, and 100.0 μM DNA2-59-1 for S. capricornutum. Estimation of the IC50 was determined by plotting 96-hour absorbance readings against logarithmic dilution values of the anthraquinone analogs. The screening results of the anthraquinone derivatives and commercially available analogs of anthraquinone are presented in Tables 1 and 2, respectively. The results in Table 1 reveal that DNA1-19-1 and DNA2-59-1 are the most promising analogs since these two compounds had the lowest LOEC and LCIC values for O. perornata (10 nM and 100 nM, respectively). Based upon IC50 results in Table 3, DNA2-59-1 appears to be more toxic and selective towards O. perornata than DNA1-19-1.
as §2, with “(A rapid bioassay for selective algicides. Weed Technol. (1997), vol. 11, pp. 767-774).” for “(1997).”, “(K. K. Schradar, M. Q. de Regt, P. D. Tidwell, C. S. Tucker and S. O. Duke, Selective growth inhibition of the musty-odor producing cyanobacterium Oscillatoria cf. chalybea by natural compounds. Bull. Environ. Contam. Toxicol. (1998a), vol.60, pp. 651-658).” for “(1998b).”, “The screening results of the anthraquinone derivatives and commercially available analogs of anthraquinone are presented in Tables 1 and 2, respectively. The results in Table 1 reveal that DNA1-19-1 and DNA2-59-1 are the most promising analogs since these two compounds had the lowest LOEC and LCIC values for O. perornata (10 nM and 100 nM, respectively). Based upon IC50 results in Table 3, DNA2-59-1 appears to be more toxic and selective towards O. perornata than DNA1-19-1.” left out

[1] = tested on: Selenastrum capricornutum; assay: as above; type: cell-based; conditions: for MIC / minimal effective concentration: Selenastrum capricornutum; for MIC: read-out: LCIC (lowest-complete-inhibition concentration), Selenastrum capricornutum; for minimal effective concentration: read-out: LOEC (lowest-observed-effect concentration), Selenastrum capricornutum
Text: as §1, §2
as §2, with “(A rapid bioassay for selective algicides. Weed Technol. (1997), vol. 11, pp. 767-774).” for “(1997).”, “(K. K. Schradar, M. Q. de Regt, P. D. Tidwell, C. S. Tucker and S. O. Duke, Selective growth inhibition of the musty-odor producing cyanobacterium Oscillatoria cf. chalybea by natural compounds. Bull. Environ. Contam. Toxicol. (1998a), vol.60, pp. 651-658).” for “(1998b).”, “The screening results of the anthraquinone derivatives and commercially available analogs of anthraquinone are presented in Tables 1 and 2, respectively. The results in Table 1 reveal that DNA1-19-1 and DNA2-59-1 are the most promising analogs since these two compounds had the lowest LOEC and LCIC values for O. perornata (10 nM and 100 nM, respectively). Based upon IC50 results in Table 3, DNA2-59-1 appears to be more toxic and selective towards O. perornata than DNA1-19-1.” left out

[2] = Planktothrix perornata, rapid screening

| Compound | LCIC (lowest-complete-inhibition concentration), Oscillatoria perornata (Oscillatoria perornata; rapid screening) | LOEC (lowest-observed-effect concentration), Oscillatoria perornata (Oscillatoria perornata; rapid screening) | LCIC (lowest-complete-inhibition concentration), Selenastrum capricornutum ([1]; rapid screening) | LOEC (lowest-observed-effect concentration), Selenastrum capricornutum ([1]; rapid screening) | MIC (Oscillatoria perornata; [2]) [µM] | MIC ([1]; rapid screening) [µM] | further results |
| --- | --- | --- | --- | --- | --- | --- | --- |
| CC(C)NC(C)c1ccc2c(c1)C(=O)c1ccccc1C2=O (stereo not drawn) [DNA2-89-1, 2-[1′-Amino-N-(1′-methylethyl)ethyl]-9,10-anthraquinone 9,10-anthraquinone] | 1,000 nM | 1,000 nM | 100,000 nM | 100,000 nM |  |  |  |
| Nc1ccc2c(c1)C(=O)c1ccccc1C2=O [2-aminoanthraquinone, reference compound] |  |  |  |  | > 100 | > 100 |  |
| O=C1c2ccccc2C(=O)c2cc(CO)ccc21 [2-hydroxymethyl-anthraquinone, reference compound] |  |  |  |  |  |  | MIC (Oscillatoria perornata; Planktothrix perornata): 10 µM (≈ 2.38 µg/mL); MIC [1]: 100 µM (≈ 23.8 µg/mL) |
| CCN(CC)Cc1cccc2c1C(=O)c1ccccc1C2=O [DNA4-39-1, 1-[Methylamino-N,N-(diethyl)]-9,10-anthraquinone monophosphate] | 1,000 nM |  | 10,000 nM | 10,000 nM |  |  | minimal effective concentration (Oscillatoria perornata; rapid screening): 0.1 µM |
| COCCOc1ccc2c(c1)C(=O)c1ccccc1C2=O [DNA2-97-2, 2-(2-Methoxyethoxy)-9,10-anthraquinone] |  |  |  |  | 10 (≈ 2.82 µg/mL) | > 100 | minimal effective concentration (Oscillatoria perornata; [2]): 10 µM; minimal effective concentration ([1]; rapid screening): > 100 µM |
| CCNCc1ccc2c(c1)C(=O)c1ccccc1C2=O.O=P(O)(O)O [DNA3-17-1, 2-[Methylamino-N-(ethyl)]-9,10-anthraquinone monophosphate] | 1,000 nM | 1,000 nM | 10,000 nM | 10,000 nM |  |  |  |
| CCCCCNCc1ccc2c(c1)C(=O)c1ccccc1C2=O.O=P(O)(O)O [DNA2-55-1, 2-[Methylamino-N-(pentyl)]-9,10-anthraquinone monophosphate] | 1,000 nM | 1,000 nM | 100,000 nM | 100,000 nM |  |  |  |
| O=C1c2ccccc2C(=O)c2cc(OCCOCCOCCOCCOCCO)ccc21 [DNA3-51-1, 2-[2-[2-[2-[2-(2-Hydroxyethoxy)ethoxy]ethoxy]ethoxy]ethoxy]-9,10-anthraquinone] |  |  |  |  | 100 (≈ 44.4 µg/mL) | > 100 | minimal effective concentration (Oscillatoria perornata; [2]): 0.1 µM; minimal effective concentration ([1]; rapid screening): > 100 µM |
| O=C(O)c1ccc2c(c1)C(=O)c1ccccc1C2=O [anthraquinone-2-carboxylic acid, reference compound] |  |  |  |  |  |  | MIC (Oscillatoria perornata; Planktothrix perornata): > 1000 µM; MIC [1]: > 1000 µM |
| CCN(CC)CCCNc1cccc2c1C(=O)c1ccccc1C2=O.O=P(O)(O)O [DNA2-91-1, 1-amino-N-(propyl-3′-N,N-diethylamino)-9,10-anthraquinone phosphate] | 10,000 nM | 10,000 nM | 100,000 nM | 100,000 nM |  |  |  |
| COCCOCCOCCOc1cccc2c1C(=O)c1ccccc1C2=O [DNA3-11-1, 1-[2-[2-(2-Methoxyethoxy)ethoxy]ethoxy]-9,10-anthraquinone] |  |  |  |  | 10 (≈ 3.7 µg/mL) | > 100 | minimal effective concentration (Oscillatoria perornata; [2]): 10 µM; minimal effective concentration ([1]; rapid screening): > 100 µM |
| CN(C)CCCNc1cccc2c1C(=O)c1ccccc1C2=O.O=P(O)(O)O [DNA2-93-1, 1-amino-N-(propyl-3′-N,N-dimethylamino)-9,10-anthraquinone phosphate] | 1,000 nM | 1,000 nM | 100,000 nM | 100,000 nM |  |  |  |
